{"source": "patent US20070032456A1", "about": "“Modulation of cell death” (priority 2003, published 2007)", "key": {"[1]": {"tested_on": "IL-6", "assay": "Level of expression of IL-6 in H9C2 cells treated with PLP under H2O2 oxidative stress", "assay_type": "cell-based, rat", "experimental": "Subcultured H9C2 cells (rat myocardium) (ATCC No. CRL-1446, from the American Type Culture Collection in Manassas, Va.) were plated into six well plates at a concentration of about 10^6 cells per well and allowed to grow overnight. The wells were then treated with concentrations of pyridoxal-5′-phosphate at concentrations of about 0, 50, 100, 250, 500, and 1000 nM in the medium. The cells were incubated for about 40 minutes.\nAn oxidative stressor, 1 mM H2O2 (Sigma, St. Louis, Mo.), was then added to each well. Supernantant samples were collected from the wells before addition of the 1 mM H2O2, and after 2, 4, 6, and 12 hours of exposure. The supernatant samples were stored at −20° C. until analyzed. The levels of IL-6 were then analyzed in each of the samples using test kits from Biosource Intl. (Camarillo, Calif.)."}, "[2]": {"tested_on": "activated p38", "assay": "Level of activated p38 in cells treated with PLP", "assay_type": "cell-based, rat", "conditions": "data not shown"}, "[3]": {"conditions": "in water, alcohol, and ether; cited from earlier work"}}, "data": [{"smiles": "Cc1ncc(COP(=O)(O)O)c(C=O)c1O", "note": "[pyridoxal-5′-phosphate, 3-hydroxy-2-methyl-5-[(phosphonooxy)methyl]-4-pyridinecarboxaldehyde]", "values": [{"measurement": "levels of IL-6 expression", "setting": "[1]; H9C2 cells (rat myocardium) pretreated about 40 minutes with 100 nM or more, then 1 mM H2O2, FIG. 1", "result": "decreased levels of IL-6 expression"}, {"measurement": "duration of the decrease of IL-6 levels", "setting": "[1]; H9C2 cells, 100 nM, after application of oxidative stress (1 mM H2O2), FIG. 2", "result": "at least 12 hours"}, {"measurement": "level of activated p38", "setting": "[2]", "result": "did not effect the level of activated p38"}, {"measurement": "solubility", "setting": "[3]", "result": "essentially insoluble"}]}]}
